Laboratory results reported in US11008554B2 (priority 2014, dated 2021).

Target: recombinant human AChE (Homo sapiens, UniProt P22303, D92N/S572N)
Format: biochemical

Sequence of recombinant human AChE (P22303 whole entry D92N/S572N, looked up): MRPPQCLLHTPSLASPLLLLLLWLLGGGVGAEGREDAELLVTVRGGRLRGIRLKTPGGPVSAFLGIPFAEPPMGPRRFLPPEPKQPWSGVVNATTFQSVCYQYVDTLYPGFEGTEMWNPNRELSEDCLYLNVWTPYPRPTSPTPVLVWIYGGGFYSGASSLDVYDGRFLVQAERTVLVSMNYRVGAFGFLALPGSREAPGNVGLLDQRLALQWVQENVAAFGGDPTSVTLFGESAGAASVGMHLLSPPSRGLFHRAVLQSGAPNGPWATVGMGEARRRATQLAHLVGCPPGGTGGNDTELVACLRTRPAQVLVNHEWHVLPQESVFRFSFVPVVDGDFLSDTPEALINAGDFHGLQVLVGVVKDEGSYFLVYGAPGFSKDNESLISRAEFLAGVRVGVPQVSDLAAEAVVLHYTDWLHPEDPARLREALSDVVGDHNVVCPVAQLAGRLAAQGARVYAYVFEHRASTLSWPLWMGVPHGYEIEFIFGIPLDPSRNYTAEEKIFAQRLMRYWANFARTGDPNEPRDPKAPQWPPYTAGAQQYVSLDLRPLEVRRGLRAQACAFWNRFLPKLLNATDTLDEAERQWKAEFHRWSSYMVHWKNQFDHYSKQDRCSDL

## CCOP(=O)(OCC)Oc1ccc([N+](=O)[O-])cc1 [paraoxon]
  inhibition of AChE enzyme (localized red spot): inhibited
